Assay results taken from US12673956B2, “Oxadiazolyl dihydropyrano[2,3-b]pyridine inhibitors of HIPK2 for treating kidney fibrosis” (ICAHN SCHOOL OF MEDICINE AT MOUNT SINAI, priority 2021, dated 2026).
Read-outs that look alike come from different tables or passages of the source.

Tested on: TGF/SMAD Signaling Pathway SBE Reporter—HEK293 Cell Line
Test: Luciferase screen, TGF/SMAD SBE reporter HEK293 cells stimulated with TGFβ
Assay type: cell-based
Settings: Homo sapiens
Description: For the data in Table 1, the Bight-Glo™ Luciferase Assay System from Promega was used with TGF/SMAD Signaling Pathway SBE Reporter—HEK293 Cell Line from BPSbioscience. On day 1 SBE reporter-HEK293 cells were seeded at a density of 25,000 cells per well into a white clear-bottom 96-well microplate in 100 μl of growth medium without geneticin. The plate was incubated at 37° C. in a CO2 incubator for 24 hrs. The wells were renewed with 60 μL assay medium and treated with test compounds by adding 5 μL of compounds in medium. The concentration of test compound in medium is adjusted so that 5 μL will provide the desired molarity of the solution. For example, if the desired test concentration is 30 µM, then 5 μL of […] compound is added. After 4 hours, TGFβ was added to 10 ng/mL. The plate was incubated at 37° C. in a CO2 incubator overnight (18 hours). One hour prior to assay all medium was replaced. The luciferase assay was run using ONE-Step™ Luciferase Assay System by adding 100 al of ONE-Step™ Luciferase reagent per well, rocking at room temperature for ~15 to 30 minutes and measuring luminescence using a luminometer. The signals were normalized to percentage inhibition, with non-TGF treated cells as 100% inhibition, and the data were processed by Graphpad Prism.

[1] = HEK293, 18 h, read-out: Luciferase IC50 nM
[2] = SBE reporter-HEK293 cells, TGFβ 10 ng/mL, 18 hours, read-out: Luciferase IC50

Row | Compound | IC50 [1] [nM] | IC50 [2] [nM]
1 | CC1(C)Oc2ncc(-c3nc(-c4nc(Cl)cs4)no3)cc2C[C@@H]1O [Example 28, (S)-6-(3-(4-chlorothiazol-2-yl)-1,2,4-oxadiazol-5-yl)-2,2-dimethyl-3,4-dihydro-2H-pyrano[2,3-b]pyridin-3-ol] | 13 | –
2 | Cc1cnc(-c2noc(-c3cnc4c(c3)C[C@@H](O)C(C)(C)O4)n2)s1 [Example 26, (R)-2,2-dimethyl-6-(3-(5-methylthiazol-2-yl)-1,2,4-oxadiazol-5-yl)-3,4-dihydro-2H-pyrano[2,3-b]pyridin-3-ol] | – | 708
3 | CC1(C)Oc2ncc(-c3nc(-c4ccc(Cl)c(F)c4)no3)cc2CC1O (stereo in doubt) [Example 35, (S)-6-(3-(4-chloro-3-fluorophenyl)-1,2,4-oxadiazol-5-yl)-2,2-dimethyl-3,4-dihydro-2H-pyrano[2,3-b]pyridin-3-ol] | 22 | –
4 | CC1(C)Oc2ncc(-c3nc(-c4cccc(Cl)c4)no3)cc2C[C@H]1O [Example 31, (R)-6-(3-(3-chlorophenyl)-1,2,4-oxadiazol-5-yl)-2,2-dimethyl-3,4-dihydro-2H-pyrano[2,3-b]pyridin-3-ol] | – | 152
5 | Cc1cnc(-c2noc(-c3cnc4c(c3)C[C@H](O)C(C)(C)O4)n2)s1 [Example 24, (S)-2,2-dimethyl-6-(3-(5-methylthiazol-2-yl)-1,2,4-oxadiazol-5-yl)-3,4-dihydro-2H-pyrano[2,3-b]pyridin-3-ol] | – | 822
6 | C[C@H]1CCc2cc(-c3nc(-c4ccc(Br)cc4)no3)cnc2O1 [Example 3] | – | 234
7 | CC1(C)Oc2ncc(-c3nc(-c4ccc(Br)cc4)no3)cc2[C@H](O)[C@H]1O [Example 8, (3R,4S)-6-(3-(4-bromophenyl)-1,2,4-oxadiazol-5-yl)-2,2-dimethyl-3,4-dihydro-2H-pyrano[2,3-b]pyridine-3,4-diol] | 11300 | –
8 | CO[C@H]1Cc2cc(-c3nc(-c4ccc(Cl)cc4)no3)cnc2OC1(C)C [Example 19, (S)-6-(3-(4-chlorophenyl)-1,2,4-oxadiazol-5-yl)-3-methoxy-2,2-dimethyl-3,4-dihydro-2H-pyrano[2,3-b]pyridine] | – | 340
9 | CC1(C)Oc2ncc(-c3nc(-c4ccc(Br)cc4)no3)cc2C[C@H]1O [Example 6, (R)-6-(3-(4-bromophenyl)-1,2,4-oxadiazol-5-yl)-2,2-dimethyl-3,4-dihydro-2H-pyrano[2,3-b]pyridin-3-ol] | 27 | –
10 | Cn1ccc(-c2noc(-c3cnc4c(c3)C[C@@H](O)C(C)(C)O4)n2)n1 [Example 17, (R)-2,2-dimethyl-6-(3-(1-methyl-1H-pyrazol-3-yl)-1,2,4-oxadiazol-5-yl)-3,4-dihydro-2H-pyrano[2,3-b]pyridin-3-ol] | – | 18
11 | CC1(C)Oc2ncc(-c3nc(-c4nccs4)no3)cc2CC1O (stereo in doubt) [Example 14, (R)-2,2-dimethyl-6-(3-(thiazol-2-yl)-1,2,4-oxadiazol-5-yl)-3,4-dihydro-2H-pyrano[2,3-b]pyridin-3-ol] | – | 1370
12 | C[C@@H]1CCc2cc(-c3nc(-c4ccc(Br)cc4)no3)cnc2O1 [Example 4, ethyl (R)-6-(3-(4-bromophenyl)-1,2,4-oxadiazol-5-yl)-2-methyl-3,4-dihydro-2H-pyrano[2,3-b]pyridine] | – | 126
13 | CC1(C)Oc2ncc(-c3nc(-c4ccc(Cl)c(Cl)c4)no3)cc2C[C@@H]1O [Example 22, (S)-6-(3-(3,4-dichlorophenyl)-1,2,4-oxadiazol-5-yl)-2,2-dimethyl-3,4-dihydro-2H-pyrano[2,3-b]pyridin-3-ol] | 43 | –
14 | CC1(C)Oc2ncc(-c3nc(-c4cccc(F)c4)no3)cc2C[C@H]1O [Example 38, (R)-6-(3-(3-fluorophenyl)-1,2,4-oxadiazol-5-yl)-2,2-dimethyl-3,4-dihydro-2H-pyrano[2,3-b]pyridin-3-ol] | – | 148
15 | Cc1cc(-c2noc(-c3cnc4c(c3)C[C@@H](O)C(C)(C)O4)n2)ccc1Cl [Example 37, (3R)-6-[3-(4-chloro-3-methyl-phenyl)-1,2,4-oxadiazol-5-yl]-2,2-dimethyl-3,4-dihydropyrano[2,3-b]pyridin-3-ol] | – | 50
16 | CC1(C)Oc2ncc(-c3nc(-c4ccc(Cl)c(F)c4)no3)cc2C[C@@H]1O [Example 34, (S)-6-(3-(4-chloro-3-fluorophenyl)-1,2,4-oxadiazol-5-yl)-2,2-dimethyl-3,4-dihydro-2H-pyrano[2,3-b]pyridin-3-ol] | 39 | –
17 | CC1(C)CC(O)c2cc(-c3nc(-c4ccc(Br)cc4)no3)cnc2O1 (stereo not shown) [Example 5, 6-(3-(4-bromophenyl)-1,2,4-oxadiazol-5-yl)-2,2-dimethyl-3,4-dihydro-2H-pyrano[2,3-b]pyridin-4-ol] | – | 86

Row | Compound | IC50 [1] [nM] | IC50 [2] [nM]
18 | CC1(C)Oc2ncc(-c3nc(-c4ncco4)no3)cc2C[C@@H]1O [Example 32, (S)-2,2-dimethyl-6-(3-(oxazol-2-yl)-1,2,4-oxadiazol-5-yl)-3,4-dihydro-2H-pyrano[2,3-b]pyridin-3-ol] | 65 | –
19 | Cn1ccc(-c2noc(-c3cnc4c(c3)C[C@H](O)C(C)(C)O4)n2)n1 [Example 18, (S)-2,2-dimethyl-6-(3-(1-methyl-1H-pyrazol-3-yl)-1,2,4-oxadiazol-5-yl)-3,4-dihydro-2H-pyrano[2,3-b]pyridin-3-ol] | – | 28
20 | CC1(C)Oc2ncc(-c3nc(-c4ccc(Br)cc4)no3)cc2C[C@@H]1O [Example 7, (S)-6-(3-(4-bromophenyl)-1,2,4-oxadiazol-5-yl)-2,2-dimethyl-3,4-dihydro-2H-pyrano[2,3-b]pyridin-3-ol] | 37 | –
21 | Cc1ccc(-c2noc(-c3cnc4c(c3)C[C@H](O)C(C)(C)O4)n2)cc1 [Example 21, (S)-2,2-dimethyl-6-(3-p-tolyl-1,2,4-oxadiazol-5-yl)-3,4-dihydro-2H-pyrano[2,3-b]pyridin-3-ol] | 17 | –
22 | CC1(C)Oc2ncc(-c3nc(-c4cc(Cl)cc(Cl)c4)no3)cc2C[C@H]1O [Example 40, (R)-6-(3-(3,5-dichlorophenyl)-1,2,4-oxadiazol-5-yl)-2,2-dimethyl-3,4-dihydro-2H-pyrano[2,3-b]pyridin-3-ol] | – | 843
23 | CC1(C)Oc2ncc(-c3nc(-c4ncc(Cl)s4)no3)cc2C[C@H]1O [Example 25, (R)-6-(3-(5-chlorothiazol-2-yl)-1,2,4-oxadiazol-5-yl)-2,2-dimethyl-3,4-dihydro-2H-pyrano[2,3-b]pyridin-3-ol] | – | 206
24 | Cc1cc(-c2noc(-c3cnc4c(c3)C[C@H](O)C(C)(C)O4)n2)ccc1Cl [Example 36, (3S)-6-[3-(4-chloro-3-methyl-phenyl)-1,2,4-oxadiazol-5-yl]-2,2-dimethyl-3,4-dihydropyrano[2,3-b]pyridin-3-ol] | 52 | –
25 | CC1(C)Oc2ncc(-c3nc(-c4ncc(Cl)s4)no3)cc2C[C@@H]1O [Example 23, (S)-6-(3-(5-chlorothiazol-2-yl)-1,2,4-oxadiazol-5-yl)-2,2-dimethyl-3,4-dihydro-2H-pyrano[2,3-b]pyridin-3-ol] | – | 242
26 | CC1(C)Oc2ncc(-c3nc(-c4nccs4)no3)cc2CC1O (stereo in doubt) [Example 16, (S)-2,2-dimethyl-6-(3-(thiazol-2-yl)-1,2,4-oxadiazol-5-yl)-3,4-dihydro-2H-pyrano[2,3-b]pyridin-3-ol] | – | 1110
27 | CC1(C)Oc2ncc(-c3nc(-c4ccc(Br)cc4)no3)cc2CC1O (stereo not shown) [Example 1, 6-(3-(4-bromophenyl)-1,2,4-oxadiazol-5-yl)-2,2-dimethyl-3,4-dihydro-2H-pyrano[2,3-b]pyridin-3-ol] | 43 | –
28 | CC1(C)C[C@@H](O)c2cc(-c3nc(-c4ccc(Br)cc4)no3)cnc2O1 (single isomer, unassigned) [Example 10] | – | 233
29 | CC1(C)Oc2ncc(-c3nc(-c4ccc(Br)cc4)no3)cc2C(N)C1O (stereo not shown) [Example 2, 4-amino-6-(3-(4-bromophenyl)-1,2,4-oxadiazol-5-yl)-2,2-dimethyl-3,4-dihydro-2H-pyrano[2,3-b]pyridin-3-ol] | 8150 | –
30 | CC1(C)Oc2ncc(-c3nc(-c4ccc(Br)cc4)no3)cc2[C@@H](O)[C@@H]1O [Example 9, (3S,4R)-6-(3-(4-bromophenyl)-1,2,4-oxadiazol-5-yl)-2,2-dimethyl-3,4-dihydro-2H-pyrano[2,3-b]pyridine-3,4-diol] | 2420 | –
31 | CC1(C)Oc2ncc(-c3nc(-c4nc(Cl)cs4)no3)cc2C[C@H]1O [Example 27, (R)-6-(3-(4-chlorothiazol-2-yl)-1,2,4-oxadiazol-5-yl)-2,2-dimethyl-3,4-dihydro-2H-pyrano[2,3-b]pyridin-3-ol] | – | 705
32 | CC1(C)Oc2ncc(-c3nc(-c4cc(Cl)cc(Cl)c4)no3)cc2C[C@@H]1O [Example 39, (S)-6-(3-(3,5-dichlorophenyl)-1,2,4-oxadiazol-5-yl)-2,2-dimethyl-3,4-dihydro-2H-pyrano[2,3-b]pyridin-3-ol] | 1250 | –
33 | CC1(C)Oc2ncc(-c3nc(-c4ccc(Cl)cc4)no3)cc2CC1O (stereo in doubt) [Example 12, (R)-6-(3-(4-chlorophenyl)-1,2,4-oxadiazol-5-yl)-2,2-dimethyl-3,4-dihydro-2H-pyrano[2,3-b]pyridin-3-ol] | – | 89
34 | CC1(C)Oc2ncc(-c3nc(-c4cccc(Cl)c4)no3)cc2C[C@@H]1O [Example 30, (S)-6-(3-(3-chlorophenyl)-1,2,4-oxadiazol-5-yl)-2,2-dimethyl-3,4-dihydro-2H-pyrano[2,3-b]pyridin-3-ol] | – | 136
